Two substances from paper PMC9256669, “Monomethyl auristatin antibody and peptide drug conjugates for trimodal cancer chemo-radio-immunotherapy” (Nature Communications, 2022) can be followed below.

For data set [1], the system named is MOC1, MOC2 and LL/2 tumors. The conditions noted are these: immune-competent mice, not in HER3 negative LL/2 tumors. On the procedure: (§1) All animal work was done in compliance with the University of California San Diego Institutional Animal Use and Care Committee under protocol #S15290. Mice were housed in individually ventilated and micro-isolator cages supplied with acidified water and fed 5053 irradiated PicoLab Rodent Diet 20. Temperature for laboratory mice in housing was 18–23 °C with humidity 40–60%. Housing room is maintained on a 12-h light/dark cycle. […] For imaging, mice were anesthetized (1:1 mixture of 100 mg/ml of ketamine and 5 mg/ml of midazolam). Animals were imaged using a Maestro Small Animal Imager (CRI) with excitation filter of 607/36 and 633 nm long pass emission filter with dichroic filter tuned to 670 nm for Cy5 images only. Imaging was done both with skin on and after skin removal to decrease autofluorescence and scattering. Exposure time for Cy5 signal capture for tumor models was as follows: CAL27 for 800 ms, MOC1 for 200 ms and MOC2 for 1500 ms.
(§2) Source data are provided in Source Data file.

Data set [2] deals with CAL27 and Detroit 562 tumor xenografts. The conditions noted are these: immune-deficient mice with HER3 expressing human tumor xenografts. The procedure:
as §1, §2
(In general: A xenograft is tissue or cells of one species grown in another, often human tumour cells in immunodeficient mice.)

A further data set concerns MOC2 tumors. As to the kind of experiment: Orthotopic tumor CyTOF analysis of immune infiltrate. Format: in vivo, C57BL/6 mice. Set-up: Immune cell quantification: M2 / CyTOF cell quantification, Immune cell quantification: CD4+ / CyTOF cell quantification, Immune cell quantification: M1 / CyTOF cell quantification, Immune cell quantification: M-MDSC / CyTOF cell quantification, Immune cell quantification: PMN-MDSC / CyTOF cell quantification, Immune cell quantification: Eosinophils / CyTOF cell quantification, Immune cell quantification: B cells: unit not given here. On the procedure:
6-week-old C57BL/6 female mice were implanted with 50,000 MOC2 cells into the tongue. […] […] Tissues were incubated for 15 min at 37 °C and mechanically digested using the gentle MACs Octo Dissociator. Digested samples were then passed through a 100-µm strainer to acquire a single-cell. For viability staining, cells were washed in PBS and stained with Cell-ID Cisplatin (DVS Sciences) to a final concentration of 5 μM for 5 min at room temperature. Cisplatin was quenched when cells were washed and stained with the antibody cocktail. Antibodies were prepared in Maxpar cell staining buffer (PBS with 2 mM EDTA, 0.1% BSA, 0.05% NaN3) and incubated with cells for 15 min at room temperature. […] Antibodies (clone in parenthesis) used for CyTOF included B220 (RA3-6B2), CD117(2B8), CD11c (N418), CD25 (3C7), CD4 (RM4-5), CD45 (30-F11), CD8a (53-6.7), MHC-II (M5/114.15.2), NKP46 (29A1.4), TCRb (H57-597) from Fluidigm. Antibodies CD103 (2E7), CD115 (AFS98), CD11b (M1/70), CD19 (6D5), CD23 (B3B4), CD3 (145-2C11), CD64 (X54-5/7.1), F4/80 (BM8), FCeRI (Mar-1), FR4 (TH6), Ly6C (HK1.4), Ly6G (1A8), NK1.1 (PK136) from BioLegend and antibody Siglec-F (1RNM44N) from ebioscience. All antibodies were validated by the supplier and used at a 1:100 dilution. Cells were washed with staining buffer and pelleted. Before acquiring, cells were resuspended in 0.1× dilution of EQ Four Element Calibration beads (Fluidigm) and filtered through a 35 μm nylon mesh filter. Cells were acquired on a Helios CyTOF Mass Cytometer (Fluidigm) at an event rate of 200 events/s or less. Data was normalized using Matlab-based normalization software based on the EQ bead-removal. Prior to analysis, samples were subsampled to the lowest number of events and all counts were normalized to the same number of total events, 2324. To detect clusters of cells with a similar expression of surface markers in CyTOF, single cells were gated and clustered using unsupervised dimensionality reduction algorithm optimal t-Distributed Stochastic Neighbor Embedding (opt-SNE) algorithm in OMIQ data analysis software (www.omiq.ai) (530 iterations, Perplexity 30, and Theta 0.5)[51].
Supplementary Figure 8: CyTOF analysis of tumor immune infiltrates. a)
populations identified with opt-SNE. b) MOC2 murine tumors orthotopically implanted
Tumors harvested on day 11, analyzed by CyTOF,
provided in Source Data file.

The subject of a further data set is MC38 tumors. To be noted: status at the day printed in the same line, one line per mouse.

“And” between values parts separate entries of the source, which are not always exact repeats. Equal entries are not always repeated. Where two headings read alike, the source gives them in different places.

Experimental for MC38 tumors: MOC1, B16, LL/2, and MC38 tumor cells were injected subcutaneously into the hindlimbs of 6-week-old female C57BL/6 albino mice in 100 µl of 1:1 Matrigel (BD) and PBS solution. Fractionated IR was delivered focally to the tumor-bearing hindlimbs (3 Gy to MC38 tumors and 5 Gy to LL/2 and B16 tumors) as indicated in figure legends using a PXI X-RAD 225 XL irradiator at maximal dose rate of 3 Gy/min with a beam-conditioning aluminum filter (Precision X-ray Irradiation). For RAG1 KO studies, 6-week-old female Rag1^tm1Mom mice were injected subcutaneously with tumor cells in their hindlimbs (Jackson Labs). For CD8 depletion studies, mice were i.p. injected with anti-CD8 (BioXCell #BE0117) at 10 mg/kg on days −6, −5 and −4 tumor cell implant and then weekly starting on day after tumor cells were injected or control antibody. […] Tumor volumes were measured and calculated using the formula as ½ * length * width^2. Mice were sacrificed when tumor volume reached >1500 mm^3, maximal tumor volume approved on our protocol for subcutaneous tumors.

As for “CDX3379-MMAE: anti-HER3 antibody CDX3379 with 4 MMAE per antibody via MC-VC-PABC linker, labeled with Cy5”, in data set [1], the “localization of i.v. injected Cy5-labeled ADC” value is “localized to HER3 expressing murine syngeneic tumors”. Further, in data set [2], the “localization of i.v. injected Cy5-labeled ADC” value is “localized to tumor bearing hindlimbs”. In addition, the “Immune cell quantification: CD8+” value in the data set with MOC2 tumors (MOC2 tumors, 2.5 nmoles drug on day 7, CyTOF on day 11, counts normalized to 2324 total events (percent of counts as in Supp. Fig. 8b), one value per tumor, untreated 0.26, 1.08, 0.73, 0.77) is 0.86 and 0.95. In the data set with MOC2 tumors (MOC2 tumors, 2.5 nmoles drug on day 7, CyTOF on day 11, one value per tumor, untreated 0.52, 0.82, 0.90, 0.65), the “Immune cell quantification: T regs” value is 1.64 and 1.12 and 1.68. Besides, in the data set on MOC2 tumors (Tumor #1), the “CyTOF cell quantification, Immune cell quantification: B cells” value (“CyTOF cell quantification … B cells” below) stood at 1.59; the “CyTOF cell quantification, Immune cell quantification: CD4+” value (“CyTOF cell quantification … CD4+” for short) turned out to be 3.49; the “CyTOF cell quantification, Immune cell quantification: Eosinophils” value (shortened to “CyTOF cell quantification … Eosinophils”) was 19.75; the “CyTOF cell quantification, Immune cell quantification: M1” value (shortened to “CyTOF cell quantification … M1”) was 1.46. For the same substance, in the data set on MOC2 tumors (Tumor #1), the “CyTOF cell quantification, Immune cell quantification: M-MDSC” value (from here on “CyTOF cell quantification … M-MDSC”) worked out at 5.98 and the “CyTOF cell quantification, Immune cell quantification: PMN-MDSC” value (“CyTOF cell quantification … PMN-MDSC” for short) was found to be 55.25. In the data set with MOC2 tumors (Tumor #2), the “CyTOF cell quantification … B cells” value is 0.69; the “CyTOF cell quantification … CD4+” value is 3.53; the “CyTOF cell quantification … Eosinophils” value was found to be 13.68; the “CyTOF cell quantification … M1” value was 0.69. In the data set on MOC2 tumors (Tumor #2), the “CyTOF cell quantification … M-MDSC” value amounted to 5.25 and the “CyTOF cell quantification … PMN-MDSC” value is recorded as 63.34. Also, in the data set with MOC2 tumors (Tumor #3), the “CyTOF cell quantification … B cells” value was determined as 1.94; the “CyTOF cell quantification … CD4+” value is on record as 1.98; the “CyTOF cell quantification … Eosinophils” value is given as 11.88; the “CyTOF cell quantification … M1” value was 0.43. In addition, in the data set with MOC2 tumors (Tumor #3), the “CyTOF cell quantification … M-MDSC” value was 4.09 and the “CyTOF cell quantification … PMN-MDSC” value was 66.35. Further, in the data set on MOC2 tumors (Tumor #4), the “CyTOF cell quantification … B cells” value is 2.11; the “CyTOF cell quantification … CD4+” value is given as 4.39; the “CyTOF cell quantification … Eosinophils” value is given as 27.02; the “CyTOF cell quantification … M1” value is given as 0.47. Besides, in the data set on MOC2 tumors (Tumor #4), the “CyTOF cell quantification … M-MDSC” value is 2.54 and the “CyTOF cell quantification … PMN-MDSC” value was 51.89. Besides, in the data set on MOC2 tumors (mouse, in vivo), the “Immune cell quantification: M2” value was 1.20 and 2.19 and 1.25 and 1.42. Further, the “tumor immune populations changed (CyTOF)” value in the data set on MOC2 tumors (orthotopic MOC2 tumors, single 2.5 nmole i.v. injection) is “regulatory T cells, dendritic cells and NK cells that were upregulated”.

In the case of “cyclo(RGD)fc-MC-HN-peg8-e9-oPLGC(Me)AG-r9-c-(MC-VC-PABC-MMAE)-CONH2 [ACPP-MMAE]”, the “Mouse survival, status” value with MC38 tumors (ACPP-MMAE + IR + αPD1) was 1 and 0; in the data set on MC38 tumors (ACPP-MMAE + IR), 1.
